Measured values from patent US20070128217A1 (priority 2003, published 2007).

Legend:
[1] = test system: antibodies in sera from SARS patients (sera 1a, 1b, 2, 6, 37, 62, London, SARS-yellow, SARS-green); type: binding, human; design: Binding of serum 6 to linear peptides of protein X1 of SARS-CoV Urbani / Binding of serum 37 to linear peptides of protein X1 of SARS-CoV Urbani / Binding of serum 6 to looped/cyclic peptide (PEPSCAN-ELISA) / Binding of serum 37 to looped/cyclic peptide (PEPSCAN-ELISA) / Binding of serum 37 to looped/cyclic peptides of protein X1 of SARS-CoV Urbani / Binding of serum 6 to linear peptides of protein X2 / Binding of serum 37 to linear peptides of protein X2 / Binding of serum 37 to looped/cyclic peptides of protein X2 of SARS-CoV Urbani / Binding of serum 6 to linear peptides of protein M of SARS-CoV Urbani / Binding of serum 37 to linear peptides of protein M of SARS-CoV Urbani / Binding of serum 6 to looped/cyclic peptides of protein M of SARS-CoV Urbani / Binding of serum 37 to looped/cyclic peptides of protein M of SARS-CoV Urbani / Binding of serum 6 to linear peptides of protein X3 of SARS-CoV Urbani / Binding of serum 37 to linear peptides of protein X3 of SARS-CoV Urbani / Binding of serum 37 to looped/cyclic peptides of protein X3 of SARS-CoV Urbani / Binding of serum 6 to linear peptides of protein X4 of SARS-CoV Urbani / Binding of serum 37 to linear peptides of protein X4 of SARS-CoV Urbani / Binding of serum 37 to looped/cyclic peptides of protein X4 of SARS-CoV Urbani / Binding of serum 6 to linear peptides of protein X5 of SARS-CoV Urbani / Binding of serum 37 to linear peptides of protein X5 of SARS-CoV Urbani / Binding of serum 37 to looped/cyclic peptides of protein X5 of SARS-CoV Urbani / Binding of serum 6 to linear peptides of protein N of SARS-CoV Urbani / Binding of serum 37 to linear peptides of protein N of SARS-CoV Urbani / Binding of serum 6 to linear peptide (PEPSCAN-ELISA) / Binding of serum 1a to looped/cyclic peptides of protein N of SARS-CoV Urbani / Binding of serum 1b to looped/cyclic peptides of protein N of SARS-CoV Urbani / Binding of serum 2 to looped/cyclic peptides of protein N of SARS-CoV Urbani / Binding of serum 6 to looped/cyclic peptides of protein N of SARS-CoV Urbani / Binding of serum 37 to looped/cyclic peptides of protein N of SARS-CoV Urbani / Binding of serum 62 to looped/cyclic peptides of protein N of SARS-CoV Urbani / Binding of serum London to looped/cyclic peptides of protein N of SARS-CoV Urbani / Binding of serum SARS-green to looped/cyclic peptides of protein N of SARS-CoV Urbani: unit not given here
[2] = test system: control sera (pooled serum of ten healthy LUMC hospital workers; commercial negative donor pooled serum from the Dutch bloodbank); type: binding, human; design: Binding of Control serum LUMC to linear peptides / Binding of Control serum Blood-bank to linear peptides / Binding of Control serum LUMC to looped peptides / Binding of Control Serum Blood-Bank to Looped peptides / Binding of Control serum LUMC to linear peptides of the protein M of SARS-CoV Urbani / Binding of Control serum Blood-bank to linear peptides of the protein M of SARS-CoV Urbani / Binding of Control serum LUMC to looped peptides of the protein M of SARS-CoV Urbani / Binding of Control Serum Blood-Bank to Looped peptides of the protein M of SARS-CoV Urbani: unit not given here
[3] = test system: rabbit serum obtained by immunizing a rabbit with the SARS-CoV strain Frankfurt 1; type: binding; design: Binding of a rabbit serum to linear peptides / Binding of a rabbit serum to looped peptides / Rabbit serum linear peptides / Rabbit serum looped peptides / Binding of a rabbit serum to linear peptides of protein N of SARS-CoV Urbani (Rabbit serum linear peptides) / Binding of a rabbit serum to looped/cyclic peptides of protein N of SARS-CoV Urbani (Rabbit serum looped peptides): unit not given here

AFLAVFQSATKIIAL
1.6: Binding of serum London to looped/cyclic peptide (PEPSCAN-ELISA) [1]
0.4: Binding of serum 1b to linear peptides of protein X1 of SARS-CoV Urbani [1] | Binding of serum 1b to looped/cyclic peptide (PEPSCAN-ELISA) [1] | Binding of serum 6 to linear peptides of protein X1 of SARS-CoV Urbani [1]
0.7: Binding of serum 1a to linear peptides of protein X1 of SARS-CoV Urbani [1] | Binding of Control Serum Blood-Bank to Looped peptides [2]
0.8: Binding of a rabbit serum to looped peptides [3]
0.2: Binding of serum London to linear peptides of protein X1 of SARS-CoV Urbani [1] | Binding of a rabbit serum to linear peptides [3]
0.5: Binding of serum 1a to looped/cyclic peptide (PEPSCAN-ELISA) [1] | Binding of serum 2 to linear peptides of protein X1 of SARS-CoV Urbani [1] | Binding of serum 2 to looped/cyclic peptide (PEPSCAN-ELISA) [1] | Binding of serum 62 to linear peptides of protein X1 of SARS-CoV Urbani [1] | Binding of Control serum Blood-bank to linear peptides [2] | Binding of Control serum LUMC to linear peptides [2]
1.3: Binding of serum 6 to looped/cyclic peptide (PEPSCAN-ELISA) [1]
0.3: Binding of serum SARS-green to linear peptides of protein X1 of SARS-CoV Urbani [1] | Binding of serum SARS-green to looped/cyclic peptide (PEPSCAN-ELISA) [1] | Binding of serum SARS-yellow to linear peptides of protein X1 of SARS-CoV Urbani [1]
0.6: Binding of serum 37 to linear peptides of protein X1 of SARS-CoV Urbani [1] | Binding of serum 37 to looped/cyclic peptide (PEPSCAN-ELISA) [1] | Binding of serum 62 to looped/cyclic peptide (PEPSCAN-ELISA) [1] | Binding of serum SARS-yellow to looped/cyclic peptide (PEPSCAN-ELISA) [1] | Binding of Control serum LUMC to looped peptides [2]

MESELVIGAVIIRGH
0.2: Binding of serum London to looped/cyclic peptides of protein M of SARS-CoV Urbani [1] | Binding of serum SARS-green to looped/cyclic peptides of protein M of SARS-CoV Urbani [1] | Binding of serum SARS-yellow to linear peptides of protein M of SARS-CoV Urbani [1] | Rabbit serum linear peptides [3] | Rabbit serum looped peptides [3]
0.8: Binding of serum 1a to linear peptides of protein M of SARS-CoV Urbani [1] | Binding of serum 2 to linear peptides of protein M of SARS-CoV Urbani [1] | Binding of Control serum Blood-bank to linear peptides of the protein M of SARS-CoV Urbani [2] | Binding of Control serum LUMC to linear peptides of the protein M of SARS-CoV Urbani [2]
0.7: Binding of serum 1a to looped/cyclic peptides of protein M of SARS-CoV Urbani [1] | Binding of serum 1b to linear peptides of protein M of SARS-CoV Urbani [1] | Binding of serum 6 to looped/cyclic peptides of protein M of SARS-CoV Urbani [1] | Binding of serum 37 to looped/cyclic peptides of protein M of SARS-CoV Urbani [1] | Binding of serum SARS-green to linear peptides of protein M of SARS-CoV Urbani [1] | Binding of Control Serum Blood-Bank to Looped peptides of the protein M of SARS-CoV Urbani [2]
0.6: Binding of serum 2 to looped/cyclic peptides of protein M of SARS-CoV Urbani [1] | Binding of serum 6 to linear peptides of protein M of SARS-CoV Urbani [1] | Binding of serum 62 to looped/cyclic peptides of protein M of SARS-CoV Urbani [1] | Binding of serum SARS-yellow to looped/cyclic peptides of protein M of SARS-CoV Urbani [1] | Binding of Control serum LUMC to looped peptides of the protein M of SARS-CoV Urbani [2]
0.5: Binding of serum 1b to looped/cyclic peptides of protein M of SARS-CoV Urbani [1] | Binding of serum 37 to linear peptides of protein M of SARS-CoV Urbani [1] | Binding of serum 62 to linear peptides of protein M of SARS-CoV Urbani [1]
0.4: Binding of serum London to linear peptides of protein M of SARS-CoV Urbani [1]
